Paper PMC7412250, “Novel Chrysin-De-Allyl PAC-1 Hybrid Analogues as Anticancer Compounds: Design, Synthesis, and Biological Evaluation” (Molecules, 2020)
Like-named read-outs stand apart in the source and are kept apart here.

Key:
U-251 = experiment: MTT cytotoxicity assay, U-251; assay type: cell-based; settings: Homo sapiens, mean ± SEM of three independent experiments in triplicate, read-out: IC50 Brain Cancer U-251
Procedure: (§1) A panel of cancer cell lines, including breast (MDA-MB-231, BT20), brain (U251), and colon (HCT116), as well as a normal cell line (human mammary epithelial cells: HMECs), were grown as adherent monolayers in flasks with Dulbecco’s Modified Eagle Medium (DMEM), supplemented with 10% fetal bovine serum (FBS) and 1% penicillin and streptomycin in a humidified incubator with 5% CO2 at 37 °C.
(§2) The (3-(4,5-dimethylthiazol-2-yl)-2,5-diphenyltetrazolium bromide) (MTT) assay was used to determine the cytotoxicity of the 15 chrysin derivatives in the above-mentioned cell lines. Briefly, cells were harvested with 0.05% trypsin, 2.21 mM ethylenediaminetetraacetic acid (EDTA), 1× from Corning (Corning, NY, USA), and suspended at a final density of 5 × 10^3 cells/well. Cells were seeded (180 μL/well) into 96-well plates. Initially, four different concentrations of each compound were added to find the compounds with the greatest antiproliferative efficacy in the MDA-MB-231 cell line (0, 1, 10, and 100 μM). Subsequently, […] different concentrations […] of each compound were added to the remaining cell lines mentioned above. After 68 h of incubation, 20 μL of the MTT solution (4 mg/mL) were added to each well, and the plates were incubated for 4 h. This allowed viable cells to biotransform the yellow-colored MTT into dark-blue formazan crystals. Subsequently, the medium was discarded, and 150 μL of DMSO were added to each well to dissolve the formazan crystals. The absorbance was determined at 590 nm using a DTX 880 multimode detector (Beckman Coulter life sciences, IN, USA). The IC50 ± SD concentrations were calculated from three experiments performed in triplicate/duplicate. The IC50 values were calculated from the cell survival percentages obtained for each compound tested at different concentrations. Similarly, the cytotoxicity of the test compounds was compared to the normal cell line (HMEC).

MDA-MB-231 cells [1] = experiment: MTT cytotoxicity assay, MDA-MB-231; assay type: cell-based, human; settings: MDA-MB-231, MTT; for IC50: Homo sapiens, mean ± SD of two independent experiments in triplicate, read-out: IC50 (cell survival)
Procedure: The synthesized chrysin derivatives were evaluated for cytotoxic efficacy in the human breast cancer cell line, MDA-MB-231, using the 3-(4,5-dimethylthiazol-2yl)-2,5-diphenyltetrazolium bromide (MTT) colorimetric assay and doxorubicin was used as a reference anticancer drug.
as §1
as §2, with “The IC50 ± SD concentrations were calculated from three experiments performed in triplicate/duplicate.” left out

BT-20 = experiment: MTT cytotoxicity assay, BT-20; assay type: cell-based; settings: Homo sapiens, mean ± SEM of three independent experiments in triplicate, read-out: IC50 Breast Cancer BT-20
Procedure: as §1, §2

HCT116 = experiment: MTT cytotoxicity assay, HCT116; assay type: cell-based; settings: Homo sapiens, HCT-116, mean ± SEM of three independent experiments in triplicate, read-out: IC50 Colon Cancer HCT116
Procedure: as §1, §2

[2] = system: HMEC (human mammary epithelial cells); experiment: MTT cytotoxicity assay, normal cells HMEC; assay type: cell-based; settings: mean ± SEM of three independent experiments in triplicate
Procedure: as §1, §2

MDA-MB-231 cells [3] = system: MDA-MB-231 cells; set-up: method as in PMID 30774307; settings: cited from earlier work; for IC50: MDA-MB-231, MTT, data taken from ref 29, read-out: IC50 (cell survival)

Row | Structure (SMILES) | IC50 (MDA-MB-231 cells [1]) [µM] | cytotoxic efficacy (in words) (MDA-MB-231 cells [1]) | also measured
1 | O=C(COc1cc(O)c2c(=O)cc(-c3ccccc3)oc2c1)N/N=C/c1cc([N+](=O)[O-])ccc1O [Compound 4o] | 7.9 ± 1.82 |  | IC50 (U-251): 11.3 ± 2.84 µM; IC50 (BT-20): 7.25 ± 1.82 µM; IC50 (HCT116): 3.85 ± 0.34 µM; IC50 [2]: 7.17 ± 4.1 µM
2 | O=C(COc1cc(O)c2c(=O)cc(-c3ccccc3)oc2c1)N/N=C/c1cccnc1 [Compound 4l, (E,Z)-2-((5-Hydroxy-4-oxo-2-phenyl-4H-chromen-7-yl)oxy)-N’-(pyridin-3-ylmethylene)acetohydrazide] |  | did not have significant cytotoxic efficacy | 
3 | COc1cccc2c1C(=O)c1c(O)c3c(c(O)c1C2=O)C[C@@](O)(C(=O)CO)C[C@@H]3O[C@H]1C[C@H](N)[C@H](O)[C@H](C)O1 [Doxorubicin, reference compound] | 0.2 ± 0.1 |  | 
4 | COc1ccccc1/C=N/NC(=O)COc1cc(O)c2c(=O)cc(-c3ccccc3)oc2c1 [Compound 4c, (E,Z)-2-((5-Hydroxy-4-oxo-2-phenyl-4H-chromen-7-yl)oxy)-N’-(2-methoxybenzylidene)acetohydrazide] | 23.3 ± 6.98 |  | 
5 | O=C(COc1cc(O)c2c(=O)cc(-c3ccccc3)oc2c1)N/N=C/c1ccccc1 [Compound 4b, (E,Z)-N’-Benzylidene-2-((5-hydroxy-4-oxo-2-phenyl-4H-chromen-7-yl)oxy)acetohydrazide] | 9.4 ± 3.38 |  | 
6 | O=C(COc1cc(O)c2c(=O)cc(-c3ccccc3)oc2c1)N/N=C/c1ccco1 [Compound 4k, (E,Z)-N’-(Furan-2-ylmethylene)-2-((5-hydroxy-4-oxo-2-phenyl-4H-chromen-7-yl)oxy)acetohydrazide] | 66.7 ± 11.1 | did not have significant cytotoxic efficacy | 
7 | O=C(COc1cc(O)c2c(=O)cc(-c3ccccc3)oc2c1)N/N=C/c1ccccn1 [Compound 4m, (E,Z)-2-((5-Hydroxy-4-oxo-2-phenyl-4H-chromen-7-yl)oxy)-N’-(pyridin-2-ylmethylene)acetohydrazide] |  | did not have significant cytotoxic efficacy | 
8 | O=C(COc1cc(O)c2c(=O)cc(-c3ccccc3)oc2c1)N/N=C/c1c(O)cc(O)cc1O [Compound 4j, (E,Z)-2-((5-Hydroxy-4-oxo-2-phenyl-4H-chromen-7-yl)oxy)-N’-(2,4,6-trihydroxybenzylidene)acetohydrazide] |  | totally inactive | 
9 | O=C(COc1cc(O)c2c(=O)cc(-c3ccccc3)oc2c1)N/N=C/c1ccc(O)cc1 [Compound 4e, (E,Z)-2-((5-Hydroxy-4-oxo-2-phenyl-4H-chromen-7-yl)oxy)-N’-(4-hydroxybenzylidene)acetohydrazide] |  |  | IC50 (MDA-MB-231 cells [3]): 54.8 ± 5.7 µM
10 | COc1ccc(/C=N/NC(=O)COc2cc(O)c3c(=O)cc(-c4ccccc4)oc3c2)cc1 [Compound 4f, (E,Z)-2-((5-Hydroxy-4-oxo-2-phenyl-4H-chromen-7-yl)oxy)-N’-(4-methoxybenzylidene)acetohydrazide] |  |  | IC50 (MDA-MB-231 cells [3]): 11.9 ± 3.5 µM; times more efficacious than 4e (MDA-MB-231 cells [3]; MDA-MB-231 cytotoxic efficacy relative to 4e): ~ 5 times
11 | O=C(COc1cc(O)c2c(=O)cc(-c3ccccc3)oc2c1)N/N=C/c1ccccc1O [Compound 4a, (E,Z)-2-((5-Hydroxy-4-oxo-2-phenyl-4H-chromen-7-yl)oxy)-N’-(2-hydroxybenzylidene)acetohydrazide] | 6.8 ± 2.76 |  | IC50 (U-251): 8.63 ± 4.86 µM; IC50 (BT-20): 4.41 ± 0.99 µM; IC50 (HCT116): 2.88 ± 0.09 µM; IC50 [2]: 7.12 ± 4.55 µM
12 | O=C(COc1cc(O)c2c(=O)cc(-c3ccccc3)oc2c1)N/N=C/c1c(O)ccc2ccccc12 [Compound 4n, (E,Z)-2-((5-Hydroxy-4-oxo-2-phenyl-4H-chromen-7-yl)oxy)-N’-((2-hydroxynaphthalen-1-yl)methylene)acetohydrazide] |  | inactive | 
